From patent publication US20040005299A1, “Method for producing pseudo islets” (Bayer Pharmaceuticals Corporation, priority 2002, published 2004)
Where two headings read alike, the source gives them in different places. One block for each compound: values may come before it.

Legend:
[1] = tested on: pseudo islets (dispersed islet cells); assay: cells; type: cell-based, Sprague Dawley rats; conditions: for EC50: 8 mM glucose, read-out: EC50 on insulin release; for IC50: dose-dependent, read-out: IC50 of inhibition of glucose-stimulated insulin release
Experimental: Pancreata from four Sprague Dawley rats were divided into small pieces approximately 1 mm^2 or smaller in size. The tissue was then rinsed three times with Hanks-Hepes buffer (127 mM NaCl, 5.4 mM KCl, 0.34 mM Na2HPO4, 4.4 mM KH2PO4, 20 mM HEPES, 1.2 mM CaCl2/5 mM glucose), and digested with collagenase (Liberase, 0.25 mg/ml, Roche Diagnostic Corp., Indianapolis, Ind.) at 37° C. in a water bath shaker for 10 minutes.
The digested pancreata tissue was rinsed three times with 50 ml of Hanks-Hepes buffer to remove the collagenase. The tissue pellet was then filtered through a 250 μm filter and the filtrate was mixed with 16 ml of 27% Ficoll (Sigma, St. Louis, Mo.) w/v in Hanks-Hepes buffer. Three layers of Ficoll (23%, 20.5%, and 11%, respectively; 8 ml of each concentration) were then loaded on top of the mixture of islet tissue in 27% Ficoll to form a gradient.
The Ficoll gradient was then centrifuged at 1,600 rpm for 10 minutes at room temperature. The pancreatic islets were concentrated at the interphase between 11% and 20.5%, and between 20.5% and 23% depending on the size of islets. The islets were collected from the two interphases and rinsed twice with Ca^++-free Hanks-Hepes buffer. The islets were then suspended in 5 ml Ca^++-free Hanks-Hepes buffer containing 1 mM EDTA and incubated for 8 minutes at room temperature.
Trypsin and DNAse I were added to the islet suspension for a final concentration of 25 μg/ml and 2 μg/ml, respectively. This suspension was incubated with shaking at 30° C. for 10 minutes. The trypsin digestion was stopped by adding 40 ml RPMI 1640 (GIBCO Life Technologies, Invitrogen, Carlsbad, Calif.) with 10% FBS. The trypsin digested islet cells were then filtered through a 63 μm nylon filter (PGC Scientific, Frederick, Md.) to remove large cell clusters.
The dispersed islet cells were then washed, counted using hemacytometer under the microscope, and seeded into “V-bottom” 96-well plates (2,500 cells per well). However, a range of 1,000 to 10,000 cells per well may used. The dispersed islet cell suspension was then centrifuged at 1,000 rpm for 5 minutes. The Hanks-Hepes buffer was removed and replaced with 200 μl RPMI 1640 medium containing 10% FBS, 1% Penicillin-Streptomycin, and 2 mM L-glutamine. Next, the 96-well plates were centrifuged at 1,000 rpm for 5 minutes to collect the dispersed islet cells concentrated at the V-bottom of the plate forming pseudo islets. These pseudo islets were then cultured overnight in a cell culture incubator at 37° C. with 5% CO2, and then used for assays.
(§1) Pseudo islets were prepared by the method described in Example 1. Following an overnight incubation, the RPMI 1640 medium was removed and replaced by 100 μl Krebs-Ringer-Hepes buffer (115 mM NaCl, 5.0 mM KCl, 24 mM NaHCO3, 2.2 mM CaCl2, 1 mM MgCl2, 20 mM HEPES, 0.25% BSA, 0.002% Phenol Red, pH 7.35-7.40). The cell suspension was then centrifuged for 5 minutes at 1,000 rpm to pellet the dispersed islet cells.
(§2) Pseudo islets in 96-well plates were incubated in a water bath at 37° C. continuously gassed with 95% O2/5% CO2 for pre-incubation for 30 minutes. The pre-incubation buffer was removed and replaced with 50 μl incubation buffer (Krebs-Ringer-Hepes buffer, pH 7.35-7.40) containing various test substrates.
The 96-well plate was centrifuged again at 1,000 rpm for 5 minutes to form pseudo islets. These pseudo islets in 96-well plates were statically incubated in a water bath at 37° C. continuously gassed with 95% O2/5% CO2 for 60 minutes. The incubation buffer (25 μl) was collected after the 60-minute incubation and used for an insulin content assay (ELISA assay, ALPCO, N.H.).

[2] = tested on: pseudo islets co-cultured with fibroblasts; assay: Insulin release from pseudo islets co-cultured with fibroblasts; type: cell-based, Sprague Dawley rats; conditions: increasing amounts of GLP-1
Experimental: Dispersed islet cells (prepared by the method described in Example 1) were washed with regular RPMI 1640 medium with 10% FBS, counted using hemacytometer under the microscope, and seeded into “V-bottom” 96-well plates with fibroblasts (2,500 islet cells and 1,250 fibroblasts cells per well). The cell suspension was then centrifuged at 1,000 rpm for 5 minutes to collect the dispersed islet cells concentrated at the V-bottom of the plate forming pseudo islets. These pseudo islets were then co-cultured with the fibroblasts cells overnight in a cell culture incubator at 37° C. with 5% CO2, and then used for assays.
as §1
as §2, with “substrates. […]” for “substrates.”

EC50 ([1]; Rattus norvegicus): 10100 nM
SMILES: CC(=O)OCC[N+](C)(C)C [Ach, Acetylcholine]

IC50 ([1]; Rattus norvegicus): 56.7 nM
SMILES: NC[C@H](O)c1ccc(O)c(O)c1 [NE, norepinephrine]

EC50 ([1]; Rattus norvegicus): 370 nM
SMILES: COc1ccc(Cl)cc1C(=O)NCCc1ccc(S(=O)(=O)NC(=O)NC2CCCCC2)cc1 [glybenclamide]

The next lines start with the compound.

SMILES: CC(C)Cn1c(=O)n(C)c(=O)c2[nH]cnc21 [IBMX]
EC50 [1]: 21900 nM

SMILES: CC[C@H](C)[C@H](NC(=O)[C@H](Cc1ccccc1)NC(=O)[C@H](CCC(=O)O)NC(=O)[C@H](CCCCN)NC(=O)[C@H](C)NC(=O)[C@H](C)NC(=O)[C@H](CCC(N)=O)NC(=O)CNC(=O)[C@H](CCC(=O)O)NC(=O)[C@H](CC(C)C)NC(=O)[C@H](Cc1ccc(O)cc1)NC(=O)[C@H](CO)NC(=O)[C@H](CO)NC(=O)[C@@H](NC(=O)[C@H](CC(=O)O)NC(=O)[C@H](CO)NC(=O)[C@@H](NC(=O)[C@H](Cc1ccccc1)NC(=O)[C@@H](NC(=O)CNC(=O)[C@H](CCC(=O)O)NC(=O)[C@H](C)NC(=O)[C@@H](N)Cc1c[nH]cn1)[C@@H](C)O)[C@@H](C)O)C(C)C)C(=O)N[C@@H](C)C(=O)N[C@@H](Cc1c[nH]c2ccccc12)C(=O)N[C@@H](CC(C)C)C(=O)N[C@H](C(=O)N[C@@H](CCCCN)C(=O)NCC(=O)N[C@@H](CCCNC(=N)N)C(N)=O)C(C)C [GLP-1]
GLP-1 mediated insulin secretion on co-culture with fibroblasts [2]: enhanced

SMILES: C[C@H](N)C(=O)NCC(=O)N[C@H]1CSSC[C@@H](C(=O)O)NC(=O)[C@H](CO)NC(=O)[C@H]([C@@H](C)O)NC(=O)[C@H](Cc2ccccc2)NC(=O)[C@H]([C@@H](C)O)NC(=O)[C@H](CCCCN)NC(=O)[C@H](Cc2c[nH]c3ccccc23)NC(=O)[C@H](Cc2ccccc2)NC(=O)[C@H](Cc2ccccc2)NC(=O)[C@H](CC(N)=O)NC(=O)[C@H](CCCCN)NC1=O [somatostain]
IC50 [1]: 0.9 nM

SMILES: C=C[C@@]1(C)CC(=O)[C@]2(O)[C@@]3(C)[C@@H](O)CCC(C)(C)[C@@H]3[C@H](O)[C@H](OC(C)=O)[C@@]2(C)O1 [forskolin]
EC50 ([1]; Rattus norvegicus): 900 nM
